Source: US9809597B2, “Ganciclovir derivatives for modulating innate and adaptive immunity and for use in immunotherapy” (The Board of Trustees of the Leland Stanford Junior …, priority 2015, dated 2017)

Columns and labels:
BV-2 cells = assay: RT-PCR for CXCL10 and IFNβ transcripts in BV-2 cells; type: cell-based, mouse; settings: for induction of CXCL10 mRNA / induction of IFNβ transcript: 200 μM; for induction of IFNβ transcript: microglia (BV-2, primary); for induction of CXCL10 mRNA on neutralization of IFNβ with an antibody: 200 μM with anti-IFNβ antibody, 4 hours
Method: (§1) BV-2 mouse microglia cells were grown in DMEM+10% FBS and THP-1 human monocyte cells were grown in RPMI-40+10% FBS+0.05 mM β-mercaptoethanol at 37° C., 5% CO2. Adherent cells were split using 1×TrypLE (Gibco). For cellular assays, cells were treated with the following concentrations of drugs as indicated in the DMEM without serum: 100-200 μM ganciclovir, 10 ng/ml IFNγ (R&D systems), 100 ng/ml LPS (Sigma-Aldrich), 1-10 μM Fludarabine (Selleckchem), 1 μM Ruxolitinib (Selleckchem), 1 μM TG-101348 (Selleckchem), 1 μM Amlexanox (Tocris bioscience) unless otherwise noted. All experiments were run in triplicates and replicated at least 3 times with cell lines and at least twice with primary microglia. Average data are shown for cell lines and representative data are shown for primary cells. Secreted signaling proteins were measured in supernatants from cultured cells stimulated with GCV and conditioned for 24 hours in the absence of serum using two independent Luminex arrays (Human Immune Monitoring Center, Stanford and Eve technologies, Canada). Nitrite assay was performed on conditioned culture supernatants of cells stimulated with drugs for 24 hours using the Griess Reagent System (Promega) according to manufacturer's instructions. To assess cellular viability, cell confluence was measured using an automated microscope (Cellavista; Roche).
(§2) RNA was isolated from cells using RNeasy mini kit from Qiagen. DNased RNA was converted to cDNA using SuperScript III reverse transcriptase kit (Life technologies). The cDNA was used to quantify specific targets using SYBR green in Roche Lightcycler 480. ΔΔCt values normalized against the experimental control to determine fold change in mRNA for each sample compared to untreated or vehicle treated control. β-actin or Ubc or both were used as housekeeping genes. Primer sequences were obtained from PrimerBank. Fold change is shown compared to the vehicle treated or untreated cells, unless otherwise noted.

[1] = system: THP-1 human monocyte cells; assay: RT-PCR for CXCL10 in THP-1 cells; type: cell-based; settings: 200 μM, 8-24 hours
Method: as §1, with “Roche). […]” for “Roche).”

BV-2 microglia = assay: siRNA knockdown (STING, IRF3, Stat1, Jak2), then RT-PCR for CXCL10; type: cell-based, mouse; settings: for CXCL10 or IFNβ mRNA expression after siRNA knockdown of Stat1 and Jak2 or lack of Stat1: BV-2 cells (siRNA) or Stat1 knockout primary microglia, 200 μM
Method: Smartpool siRNAs against mouse targets were bought from Dharmacon and transfected in microglia cells using Viromer Blue from Lipocalyx at a concentration of 50 nM according to manufacturer's instructions. Drugs were added cells after 24 hours of transfection and assays done 24 hours after addition of drugs.
as §2

[2] = system: IFNγ/LPS stimulated BV-2 microglia; assay: Nitrite assay (Griess) on culture supernatants; type: cell-based, mouse; settings: 24 hours
Method: as §1

[3] = system: BV-2 and primary microglia stimulated with IFNγ and LPS; assay: RT-PCR of inflammatory transcripts in IFNγ/LPS stimulated microglia; type: cell-based, mouse; settings: IFNγ/LPS stimulated BV-2 microglia, 200 μM, 24 hours
Method: BV-2 mouse microglia cells were grown in DMEM+10% FBS and THP-1 human monocyte cells were grown in RPMI-40+10% FBS+0.05 mM β-mercaptoethanol at 37° C., 5% CO2. Adherent cells were split using 1×TrypLE (Gibco). For cellular assays, cells were treated with the following concentrations of drugs as indicated in the DMEM without serum: 100-200 μM ganciclovir, 10 ng/ml IFNγ (R&D systems), 100 ng/ml LPS (Sigma-Aldrich), 1-10 μM Fludarabine (Selleckchem), 1 μM Ruxolitinib (Selleckchem), 1 μM TG-101348 (Selleckchem), 1 μM Amlexanox (Tocris bioscience) unless otherwise noted. All experiments were run in triplicates and replicated at least 3 times with cell lines and at least twice with primary microglia. Average data are shown for cell lines and representative data are shown for primary cells. Secreted signaling proteins were measured in supernatants from cultured cells stimulated with GCV and conditioned for 24 hours in the absence of serum using two independent Luminex arrays (Human Immune Monitoring Center, Stanford and Eve technologies, Canada). Nitrite assay was performed on conditioned culture supernatants of cells stimulated with drugs for 24 hours using the Griess Reagent System (Promega) according to manufacturer's instructions. To assess cellular viability, cell confluence was measured using an automated microscope (Cellavista; Roche). Mice were housed and bred according to the Institutional Animal Care and Use Committee guidelines. Primary microglia and astrocytes were isolated from P0-P3 C57BL/6 mouse pups. Cortices from pups were isolated, meninges removed and tissue was dissociated using a 25-gauge needle. Two cortices were plated on each poly-L-lysine coated T-75 flasks in DMEM/F12+10% FBS+1% penicillin/streptomycin. Microglia and astrocyte co-cultures were maintained for 3 weeks, after which microglia were isolated using CD11b magnetic beads (Miltenyi Biotec) according to the manufacturer's instructions. Isolated microglia were allowed to recover for 1-2 days and processed for cellular assays described above. RNA was isolated from cells using RNeasy mini kit from Qiagen. […] was converted to cDNA using SuperScript III reverse transcriptase kit (Life technologies). The cDNA was used to quantify specific targets using SYBR green in Roche Lightcycler 480. ΔΔCt values normalized against the experimental control to determine fold change in mRNA for each sample compared to untreated or vehicle treated control. β-actin or Ubc or both were used as housekeeping genes. Primer sequences were obtained from PrimerBank. Fold change is shown compared to the vehicle treated or untreated cells, unless otherwise noted.

primary microglia = assay: RT-PCR for CXCL10 and IFNβ transcripts in primary microglia (wildtype, tk KO, STING^gt/gt); type: cell-based, mouse; settings: 200 μM, 6 hours; for CXCL10 mRNA in microglia from tk1 knockout mice: adult tk1 knockout primary microglia; for induction of CXCL10 mRNA in STING^gt/gt primary microglia / induction of IFNβ mRNA in STING^gt/gt primary microglia: primary microglia lacking functional STING
Method: Mice were housed and bred according to the Institutional Animal Care and Use Committee guidelines. Primary microglia and astrocytes were isolated from P0-P3 C57BL/6 mouse pups. Cortices from pups were isolated, meninges removed and tissue was dissociated using a 25-gauge needle. Two cortices were plated on each poly-L-lysine coated T-75 flasks in DMEM/F12+10% FBS+1% penicillin/streptomycin. Microglia and astrocyte co-cultures were maintained for 3 weeks, after which microglia were isolated using CD11b magnetic beads (Miltenyi Biotec) according to the manufacturer's instructions. Isolated microglia were allowed to recover for 1-2 days and processed for cellular assays described above.
For tk KO experiments only, microglia were isolated from adult mouse brains using the neural dissociation kit (Miltenyi Biotec) according to manufacturer's protocol followed by CD11b magnetic bead enrichment. Isolated cells were cultured for 3-4 days before the experiment.
as §2

[4] = BV-2 microglia, siRNA 24 hours, then 200 μM for 24 hours

Nc1nc2c(ncn2COCCO)c(=O)[nH]1 [Acyclovir]
induction of CXCL10 mRNA (BV-2 cells; BV-2 cells, 24 hours): failed to induce

CC(C)c1ccc2oc3nc(N)c(C(=O)O)cc3c(=O)c2c1 [Amlexanox]
inhibition of CXCL10 mRNA induction by GCV and diGCV (Tbk1 inhibition) (BV-2 cells; BV-2 cells, 1 μM Amlexanox with 200 μM GCV or diGCV, 24 hours): inhibited

Nc1ccn(C[C@@H](CO)OCP(=O)(O)O)c(=O)n1 [Cidofovir]
induction of CXCL10 mRNA (BV-2 cells; BV-2 cells, 24 hours): failed to induce

Cc1ccc2c(=O)c3cccc(CC(=O)O)c3oc2c1C [DMXAA]
induction of CXCL10 mRNA in human monocyte cell line [1]: did not
induction of CXCL10 mRNA (BV-2 cells; BV-2 cells, 24 hours): strongly induced
induction of IFNβ transcript (BV-2 cells): strongly induced

O=C(O)P(=O)(O)O [Foscarnet]
induction of CXCL10 mRNA (BV-2 cells; BV-2 cells, 24 hours): failed to induce

Nc1nc2c(ncn2CCC(CO)CO)c(=O)[nH]1 [Penciclovir]
induction of CXCL10 mRNA (BV-2 cells; BV-2 cells, 24 hours): failed to induce

NC(=O)c1ncn([C@@H]2O[C@H](CO)[C@@H](O)[C@H]2O)n1 [Ribavirin]
induction of CXCL10 mRNA (BV-2 cells; BV-2 cells, 24 hours): failed to induce

Cc1cnc(Nc2ccc(OCCN3CCCC3)cc2)nc1Nc1cccc(S(=O)(=O)NC(C)(C)C)c1 [TG101348]
inhibition of CXCL10 production in response to GCV and diGCV (BV-2 cells; BV-2 cells, 24 hours, 10 μM Fludarabine or 1 μM Jak inhibitor with 200 μM GCV or diGCV): strongly inhibited
inhibition of CXCL10 production in response to cGAMP (BV-2 cells; BV-2 cells, 24 hours, 10 μM Fludarabine or 1 μM Jak inhibitor with 200 μM cGAMP): somewhat less pronounced

Nc1ncnc2c1ncn2[C@@H]1O[C@H](CO)[C@@H](O)[C@@H]1O [Vidarabine]
induction of CXCL10 mRNA (BV-2 cells; BV-2 cells, 24 hours): failed to induce

Nc1nc2c(ncn2[C@@H]2O[C@@H]3COP(=O)(O)O[C@H]4[C@@H](O)[C@H](n5cnc6c(=O)[nH]c(N)nc65)O[C@@H]4COP(=O)(O)O[C@H]3[C@H]2O)c(=O)[nH]1 [c-diGMP]
induction of CXCL10 mRNA (BV-2 cells; BV-2 cells, 24 hours): strongly induced
induction of IFNβ transcript (BV-2 cells): strongly induced

Nc1nc2c(ncn2[C@@H]2O[C@@H]3COP(=O)(O)O[C@H]4[C@@H](O)[C@H](n5cnc6c(N)ncnc65)O[C@@H]4COP(=O)(O)O[C@@H]2[C@@H]3O)c(=O)[nH]1 [cGAMP, cyclic-GAMP]
induction of CXCL10 mRNA on neutralization of IFNβ with an antibody (BV-2 cells; BV-2 cells): partly reduced
induction of CXCL10 mRNA (BV-2 cells; BV-2 cells, 24 hours): strongly induced
induction of IFNβ transcript (BV-2 cells): strongly induced
CXCL10 or IFNβ mRNA expression after siRNA knockdown of Stat1 and Jak2 or lack of Stat1 (BV-2 microglia): significantly reduced

NC1=Nc2c(ncn2COC(CO)CO)C(OCCOCCOCCOCCOc2nc(N)nc3c2ncn3COC(CO)CO)N1 (centres unmarked) [diGCV, 2-({2-Amino-6-[2-(2-{2-[2-(2-amino-9-{[2-hydroxy-1-(hydroxymethyl)ethoxy]methyl}-9H-purin-6-yloxy)ethoxy]ethoxy}ethoxy)ethoxy]-6,9-dihydro-1H-purin-9-yl}methoxy)-1,3-propanediol]
microglial nitric oxide production (nitrite assay) [2]: potently reduced
induction of CXCL10 mRNA on neutralization of IFNβ with an antibody (BV-2 cells; BV-2 cells): partly reduced
induction of CXCL10 mRNA (BV-2 cells; BV-2 cells, 24 hours): increased potency
CXCL10 or IFNβ mRNA expression after siRNA knockdown of Stat1 and Jak2 or lack of Stat1 (BV-2 microglia): significantly reduced
capacity to induce CXCL10 after siRNA knock down of STING (BV-2 microglia; [4]): largely abrogated
potential to induce CXCL10 mRNA after siRNA knockdown of IRF3 (BV-2 microglia; [4]): inhibited
inflammatory markers (transcripts) [3]: potently reduced
CXCL10 mRNA in microglia from tk1 knockout mice (primary microglia): triggered CXCL10 independent of endogenous tk1
induction of CXCL10 mRNA in STING^gt/gt primary microglia (primary microglia): failed to induce
induction of IFNβ mRNA in STING^gt/gt primary microglia (primary microglia): failed to induce

Nc1nc2nc[nH]c2c(=O)[nH]1 [guanine]
induction of CXCL10 mRNA (BV-2 cells; BV-2 cells, 24 hours): failed to induce

Nc1nc2c(ncn2[C@@H]2O[C@H](CO)[C@@H](O)[C@H]2O)c(=O)[nH]1 [guanosine]
induction of CXCL10 mRNA (BV-2 cells; BV-2 cells, 24 hours): failed to induce

NC1=Nc2c(ncn2COC(CO)CO)C(OCCOCCOCCOCCO)N1 (centres unmarked) [monoGCV, 2-{[2-Amino-6-(2-{2-[2-(2-hydroxyethoxy)ethoxy]ethoxy}ethoxy)-6,9-dihydro-1H-purin-9-yl]methoxy}-1,3-propanediol]
microglial nitric oxide production (nitrite assay) [2]: potently reduced
induction of CXCL10 mRNA on neutralization of IFNβ with an antibody (BV-2 cells; BV-2 cells): partly reduced
CXCL10 or IFNβ mRNA expression after siRNA knockdown of Stat1 and Jak2 or lack of Stat1 (BV-2 microglia): significantly reduced
inflammatory markers (transcripts) [3]: potently reduced
CXCL10 mRNA in microglia from tk1 knockout mice (primary microglia): triggered CXCL10 independent of endogenous tk1
induction of CXCL10 mRNA in STING^gt/gt primary microglia (primary microglia): failed to induce
induction of IFNβ mRNA in STING^gt/gt primary microglia (primary microglia): failed to induce

NC1=Nc2c(ncn2COC(CO)CO)C(OCCCSSCCCOC2NC(N)=Nc3c2ncn3COC(CO)CO)N1 (centres unmarked) [thiol-GCV, 2-[(2-Amino-6-{3-[3-(2-amino-9-{[2-hydroxy-1-(hydroxymethyl)ethoxy]methyl}-6,9-dihydro-1H-purin-6-yloxy)propyldithio]propoxy}-6,9-dihydro-1H-purin-9-yl)methoxy]-1,3-propanediol]
induction of CXCL10 mRNA (BV-2 cells; BV-2 cells, 24 hours): increased potency
